Measured values: the CombiSolv-Exp solvation set (Vermeire and Green 2021)

Experiment: solvent given as SMILES

CCC1CCCCC1
Details | solvation free energy, 298 K [kcal/mol]
in Brc1ccccc1 | -5.2
in C1CCCCC1 | -5.59
in C1CCOC1 | -5.38
in C1COCCO1 | -4.67
in C=CCCCC | -5.39
in C=CCCCCCC | -5.34
in C=CCCCCCCCC | -5.3
in CC1COC(=O)O1 | -3.41
in CC#N | -3.87
in CC(=O)N(C)C | -4.21
in CC(=O)O | -4.16
in CC(=O)c1ccccc1 | -4.54
in CC(C)=O | -4.54
in CC(C)CC(C)(C)C | -5.28
in CC(C)CCCC(C)CCCC(C)CCCCC(C)CCCC(C)CCCC(C)C | -4.99
in CC(C)CCO | -4.74
in CC(C)O | -4.53
in CC(C)OC(C)C | -5.26
in CCBr | -5.53
in CCC#N | -4.51
in CCC(C)=O | -4.81
in CCCC#N | -4.46
in CCCC(=O)OCC | -5.04
in CCCC(C)=O | -4.91
in CCCCC | -5.41
in CCCCCC | -5.42
in CCCCCC(C)=O | -4.96
in CCCCCCC | -5.39
in CCCCCCCC | -5.38
in CCCCCCCCC | -5.31
in CCCCCCCCC=CCCCCCCCC(=O)OCC(COC(=O)CCCCCCCC=CCCCCCCCC)OC(=O)CCCCCCCC=CCCCCCCCC | -5.07
in CCCCCCCCCC | -5.28
in CCCCCCCCCCCC | -5.21
in CCCCCCCCCCCCCCCC | -5.15
in CCCCCCCCO | -4.84
in CCCCCCOC(C)=O | -5.05
in CCCCO | -4.69
in CCCCOC(=O)c1ccccc1C(=O)OCCCC | -4.8
in CCCCOC(C)=O | -4.99
in CCCCOCCCC | -5.24
in CCCO | -4.55
in CCN(CC)CC | -5.43
in CCO | -4.47
in CCOC(=O)c1ccccc1C(=O)OCC | -4.24
in CCOC(C)=O | -4.83
in CCOCC | -5.33
in CCOCCOCCOCC | -4.82
in CCOc1ccccc1 | -4.96
in CN1CCCC1=O | -4.2
in CN(C)C=O | -4.06
in CN(C)P(=O)(N(C)C)N(C)C | -4.49
in CNC=O | -3.73
in CO | -4.05
in COC(C)=O | -4.62
in COCCO | -4.06
in COc1ccccc1 | -4.91
in CS(C)=O | -3.28
in Cc1ccc(C)cc1 | -5.35
in Cc1ccccc1 | -5.37
in Cc1ccccn1 | -5
in ClC(Cl)(Cl)Cl | -5.58
in ClC(Cl)Cl | -5.46
in ClCCCl | -4.91
in ClCCl | -5.2
in Clc1ccccc1 | -5.37
in FC(F)(F)C(F)(F)C(F)(F)C(F)(F)C(F)(F)C(F)(F)C(F)(F)C(F)(F)F | -3.5
in FC(F)(F)C(F)(F)C(F)(F)C(F)(F)C(F)(F)C(F)(F)F | -3.53
in Fc1ccccc1 | -5.22
in ICI | -3.85
in N#Cc1ccccc1 | -4.57
in NC=O | -1.81
in Nc1ccccc1 | -3.93
in O | 2.14
in O=C1CCCCC1 | -4.85
in O=C1CCCO1 | -3.62
in O=CN1CCOCC1 | -3.52
in O=Cc1ccco1 | -3.95
in OCCCCCO | -3.47
in OCCCCO | -3.26
in OCCCO | -2.9
in OCCO | -2.11
in OCCOCCO | -2.81
in OCCOCCOCCO | -3.01
in OCc1ccccc1 | -4.14
in S=C=S | -5.65
in c1ccccc1 | -5.35
in c1ccncc1 | -4.73

CCC(C)(C)C
Details | solvation free energy, 298 K [kcal/mol]
in C=CCCCCCCCCCCCCCC | -3.12
in CC#N | -2.32
in CC(C)CCCC(C)CCCC(C)CCCCC(C)CCCC(C)CCCC(C)C | -3
in CC(C)O | -2.73
in CCC(C)(C)OC | -3.49
in CCCCCC | -3.63
in CCCCCCCCCC | -3.38
in CCCCCCCCCCCCCCCC | -3.18
in CCCCCCCCCOC(=O)c1ccccc1C(=O)OCCCCCCCCC | -2.76
in CCCCCO | -2.93
in CCCCO | -2.89
in CN1CCCC1=O | -2.13
in CN(C)C=O | -2.33
in O | 2.51

CC(C)CCCC(C)C1CCC2C3CC=C4CC(O)CCC4(C)C3CCC12C (configuration not stated)
Details | solvation free energy, 298 K [kcal/mol]
in O | -5.93
